Laboratory results from publication PMC3145970, “Specific CLK Inhibitors from a Novel Chemotype for Regulation of Alternative Splicing” (Chemistry & Biology, 2011).
“Also recorded” adds a separate entry of the source.

How the values were obtained:
CLK1 = molecular target: T1, CLK1 (Homo sapiens, UniProt P49759); experiment: Coupled-enzyme (PK/LDH) kinase inhibition assay; type: biochemical; details: 0.1 mM ATP, 25°C; average from three independent experiments
T1 construct: the kinase domains of human CLK1 (residues: 148–484 (C terminus)); hexahistidine tag (TEV-cleavable) (cleaved yes); made in house; host or cells: E. coli BL21(DE3)
T1 sequence (P49759 148-484): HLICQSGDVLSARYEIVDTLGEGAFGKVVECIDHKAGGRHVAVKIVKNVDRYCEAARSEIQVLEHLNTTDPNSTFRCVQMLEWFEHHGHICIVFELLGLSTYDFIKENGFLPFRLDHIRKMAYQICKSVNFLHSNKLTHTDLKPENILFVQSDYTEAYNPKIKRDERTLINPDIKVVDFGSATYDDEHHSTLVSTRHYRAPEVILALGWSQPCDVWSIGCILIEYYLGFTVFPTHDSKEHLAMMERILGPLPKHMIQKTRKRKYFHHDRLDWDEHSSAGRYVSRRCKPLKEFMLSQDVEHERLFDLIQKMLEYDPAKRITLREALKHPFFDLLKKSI
Protocol: The consensus peptide for CLK1 ([…]) and the DYRK1A substrate peptide ([…]-amide) were used as substrates at a concentration of 100 μM. Inhibitors, dissolved in DMSO, were added at the beginning of the preincubation period resulting in a final DMSO concentration of 2% in the assay. Kinetic analysis was performed by nonlinear regression fitting using GraphPad Prism 5 and least-squares fits to sigmoidal dose response curves with variable slope equation: Y=min+max−min/1+10^(logEC50−x)Hillslope, where max and min corresponds to maximal and minimal absorbance value.

[1] = test system: phosphorylated SR proteins in HMEC-1 cells; experiment: SR protein phosphorylation, western blotting; type: cell-based, human
Protocol: Western blot analysis of samples from cell lysates of inhibited, stimulated, and unstimulated HMEC-1 cells were performed as previously described ([Szotowski et al., 2005]). For detection of phosphorylated SR proteins, monoclonal antibody mAb1H4 (Invitrogen GmbH, Karlsruhe, Germany) was used.

[2] = test system: flTF and asHTF mRNA in HMEC-1 cells; experiment: TF isoform mRNA expression (RT-PCR)
Protocol: For inhibition experiments, HMEC-1 endothelial cells were switched to EC basal medium (without fetal calf serum) for 1 hr. […] Analysis of the TF isoform mRNA expression was done 1 hr post stimulation with TNF-α and assessment of the phosphorylation state of SR proteins by western blotting was performed 2 min post induction of the cells. Positive controls were stimulated only with TNF-α, and negative controls were untreated.

Row | Structure (SMILES) | IC50 (CLK1) [nM] | TNF-α-induced phosphorylation of SR proteins ([1]; HMEC-1, 10 μM inhibitor pretreatment, 10 ng/ml TNF-α, 2 min post stimulation) | Phosphorylation state of SR proteins, nonstimulated cells ([1]; HMEC-1, 10 μM inhibitor, basal conditions) | Dose response of SRp75 and SRp55 phosphorylation ([1]; TNF-α-stimulated HMEC-1, increasing inhibitor concentration) | TNF-α-induced mRNA expression of flTF and asHTF ([2]; HMEC-1, 10 μM inhibitor, 10 ng/ml TNF-α, 1 hr post stimulation) | Basal mRNA expression of flTF and asHTF ([2]; resting HMEC-1, 10 μM inhibitor)
1 | Nc1nc(Nc2ccc(S(N)(=O)=O)cc2)nn1C(=S)Nc1c(F)cccc1F [K00546] | 8.9 ± 3 |  |  |  |  | 
2 | CCN1/C(=C/C(C)=O)Sc2ccc(OC)cc21 [TG003] |  | reduction of the TNF-α-induced increase in phosphorylation of all analyzed SR proteins | only reduced the phosphorylation of SRp20; also recorded: no effect on the phosphorylation state of other SR proteins | little effect on SRp75 and SRp55 phosphorylation | only slightly reduced mRNA expression in TNF-α-induced cells | reduced the basal expression of flTF and asHTF mRNA
